17 compounds from ChEMBL document CHEMBL1130168, “Synthesis and evaluation of novel rhodacyanine dyes that exhibit antitumor activity” (J Med Chem, 1997) can be followed below.

A word on the IC50: it is the midpoint of a concentration-inhibition curve. As usually defined, the T/C is the result in the treated group divided by that in the control group, in per cent.

Assay [1] can be described thus: Selectivity ratio is IC50 of Human colon carcinoma cells to that of Monkey normal kidney epithelial cells. The class given is functional, Epithelial cell.
For a further assay, the system named is CX-1. Description: Inhibitory concentration against growth of human colon carcinoma cells. In kind it is functional, cell-based.
The subject of the next assay is CV-1. Nature of the assay: Inhibitory concentration against growth of monkey normal kidney epithelial cells as a measure of compound toxicity. In kind it is functional, cell-based, Cercopithecidae. To be noted: Chlorocebus aethiops.
Assay [2] concerns Mus musculus. Nature of the assay: 5 mg/kg of compound was administered IP on days 1,5,8,12,15 to LOX tumor bearing nude mice and the ratio of median survival time of treated to control was reported. In kind it is functional. To be noted: at 5 mg/kg.
A further assay relates to MIA PaCa-2. Nature of the assay: Inhibitory concentration of compound against growth of human pancreatic carcinoma cells. The class given is functional, cell-based.
In assay [3] the test system is LOX IMVI. Nature of the assay: Inhibitory concentration of compound against growth of human melanoma cells. In kind it is functional, cell-based.
The subject of the next assay is MCF7. Description: Inhibitory concentration of compound against growth of human breast carcinoma cells. In kind it is functional, cell-based.
The subject of the next assay is Bladder carcinoma cell. Description: Inhibitory concentration of compound against growth of human bladder carcinoma cells. In kind it is functional, cell-based.
Assay [4] relates to Mus musculus. Nature of the assay: 5 mg/kg of compound was administered IP on days 1,3,7,10,16 to […] tumor bearing nude mice and the ratio of median survival time of treated to control was reported. In kind it is functional. To be noted: at 5 mg/kg.
The test system of assay [5] is Mus musculus. Description: 1.5 mg/kg of compound was administered IP on days 1,3,4,7,9 to LOX tumor bearing nude mice and the ratio of median survival time of treated to control was reported. The class given is functional.
In assay [6] the test system is Mus musculus. Nature of the assay: 5 mg/kg of compound was administered IP on days 1,3,7,10,16 to OVCARIII tumor bearing nude mice and the ratio of median survival time of treated to control was reported.
In assay [7] the test system is Mus musculus. Description: 5 mg/kg of compound was administered IP on days 1,5,8,12 to LOX tumor bearing nude mice and the ratio of median survival time of treated to control was reported. In kind it is functional.
In assay [8] the test system is Mus musculus. Nature of the assay: 5 mg/kg of compound was administered IP on days 1,5,7 to CX-1 tumor bearing nude mice and the inhibition ratio was reported. The class given is functional.
Assay [9] concerns Mus musculus. Description: 4 mg/kg of compound was administered IP on days 1,2,4,5,7,8,10 to LOX tumor bearing nude mice and the ratio of median survival time of treated to control was reported. In kind it is functional. To be noted: at 4 mg/kg.
In assay [10] the test system is Mus musculus. Nature of the assay: 2 mg/kg of compound was administered IP on days 1,2,4,5,7,8,10 to LOX tumor bearing nude mice and the ratio of median survival time of treated to control was reported. In kind it is functional. To be noted: at 2 mg/kg.
Assay [11] concerns LOX IMVI. Description: Inhibitory concentration of compound against growth of human melanoma cell cells. In kind it is functional, cell-based.
[12] abbreviates: Homo sapiens, Bladder carcinoma cell.

For `CCN1/C(=C/C=c2/c(=O)s/c(=C/c3sc4ccccc4[n+]3CC)n2C)Oc2ccccc21.[I-]`, the Ratio in assay [1] came out at 49. Besides, the results for the IC50 in the assay with CX-1 and with CV-1 were 70 nM and 3400 nM, respectively.

Turning to `CCN1C(=O)CS/C1=C\c1sc2ccccc2[n+]1CC.[Br-]`, in assay [1], the Ratio is 30. In addition, the IC50 is 1300 nM in the assay on CX-1 and 38900 nM in the assay with CV-1.

With `CC[n+]1c(/C=c2\s/c(=C\C=C\Nc3ccccc3)c(=O)n2-c2ccccc2)sc2ccccc21.[I-]`, in assay [1], the Ratio was 12. Besides, the figures for the IC50 in the assay on CX-1 and with CV-1 were 800 nM and 9800 nM, respectively.

Consider `CCN1/C(=C/C=c2\s/c(=C\c3sc4ccccc4[n+]3CC)n(C)c2=O)Oc2ccccc21.[I-]`, for which the Ratio in assay [1] is 57. The IC50 with CX-1 is 30 nM; in the assay with CV-1 it was 1700 nM.

Turning to `CCN1/C(=C/C=c2\s/c(=C\c3sc4ccc5ccccc5c4[n+]3CC)n(CC)c2=O)Sc2ccc3ccccc3c21.Cc1ccc(S(=O)(=O)[O-])cc1`, in assay [1], the Ratio was found to be 217. Besides, the IC50 with CX-1 turned out to be 30 nM; with CV-1, 6500 nM.

Regarding `CC[n+]1c(/C=c2\s/c(=C\Nc3ccccc3)c(=O)n2-c2ccccc2)sc2ccccc21.[Br-]`, in assay [1], the Ratio is 1. The IC50 in the assay on CX-1 and in the assay with CV-1 was 1500 nM in each case.

`CCn1c(=O)/c(=C2\Sc3ccccc3N2C)s/c1=C\c1sc2ccccc2[n+]1CC.[I-]`: the values for the T/C in the assay on Mus musculus [2] and in the assay on Mus musculus [4] were 168% and 180%, respectively. Further, the IC50 turned out to be 50 nM in the assay with MIA PaCa-2 (mia paca-2); 20 nM in the assay with LOX IMVI [3]; 90 nM in the assay on MCF7 (mcf7); 50 nM in the assay with CX-1; 70 nM in the assay on Bladder carcinoma cell (bladder carcinoma cell); 17300 nM in the assay on CV-1. Besides, the Ratio in assay [1] is 346.

On to `CCN1/C(=C/C=c2\s/c(=C\c3sc4ccccc4[n+]3CC)sc2=O)Oc2ccccc21.[I-]`, for which the Ratio in [1] is listed as less than 2. The IC50 in the assay with CX-1 is greater than 1700 nM; in the assay with CV-1, 3400 nM.

Turning to `CCn1c(=O)c(=C2CCCCC2)s/c1=C\c1sc2ccccc2[n+]1CC.Cc1ccc(S(=O)(=O)[O-])cc1`, the Ratio in assay [1] came to 9. Moreover, the IC50 in the assay on CX-1 was 1800 nM; with CV-1, 16200 nM.

As for `CCn1c(=O)/c(=C2\Sc3ccccc3N2C)n(CC)/c1=C\c1sc2ccccc2[n+]1CC.[I-]`, the Ratio in [1] was 20. The values for the IC50 in the assay with CX-1 and in the assay on CV-1 were 1300 nM and 25400 nM, respectively.

Regarding `CCN1/C(=C/C=c2/c(=O)n(CC)/c(=C/c3sc4c5ccccc5ccc4[n+]3CC)n2CC)Sc2ccc3ccccc3c21.[I-]`, the Ratio in assay [1] is recorded as 8. Besides, the 50% inhibitory concentration (IC50) in the assay on CX-1 was determined as 100 nM; with CV-1, 800 nM.

For `CCN1/C(=C/C=c2\s/c(=C\c3sc4ccccc4[n+]3CC)n(-c3ccccc3)c2=O)Sc2ccccc21.[I-]`, the IC50 came to 70 nM in the assay on MIA PaCa-2 (Homo sapiens, MIA PaCa-2); 40 nM with LOX IMVI [3]; 40 nM with MCF7 (Homo sapiens, MCF7); 60 nM with CX-1; 400 nM in the assay with Bladder carcinoma cell (setting [12]); 3000 nM with CV-1. Moreover, the Ratio in [1] is given as 50. The T/C with Mus musculus [5] came to 256%.

On to `CCN1/C(=C/C=C/c2sc3ccccc3[n+]2CC)Sc2ccccc21.[I-]`, for which the Ratio in assay [1] stood at 20. For the same compound, the IC50 turned out to be 60 nM in the assay with CX-1 and 1200 nM with CV-1.

On to `CCN1/C(=C/C=C(Cl)/C=C/c2sc3ccc4ccccc4c3[n+]2CC)Sc2ccc3ccccc3c21.Cc1ccc(S(=O)(=O)[O-])cc1`, for which the Ratio in assay [1] amounted to 2. Moreover, the IC50 with CX-1 came out at 60 nM; with CV-1, 100 nM.

Take `CC[n+]1c(/C=c2\s/c(=C3/Sc4ccccc4N3C)c(=O)n2-c2ccccc2)sc2ccccc21.Cc1ccc(S(=O)(=O)[O-])cc1`: the T/C with Mus musculus [6] is greater than 300%; with Mus musculus [7] it was 183%. Also, the IC50 in the assay on MIA PaCa-2 (Homo sapiens, MIA PaCa-2) was determined as 40 nM; in the assay with LOX IMVI [3], 40 nM; in the assay on MCF7 (Homo sapiens, MCF7) it was 60 nM; with CX-1, 10 nM; in the assay with Bladder carcinoma cell (setting [12]), 40 nM; in the assay on CV-1, 2200 nM. Also, the TI in the assay with Mus musculus [8] stood at 42%. Besides, the Ratio in assay [1] turned out to be 220.

In the case of `CC(=O)[O-].CCn1c(=O)/c(=C2\Sc3ccccc3N2C)s/c1=C\c1sc2ccccc2[n+]1CC`, the T/C in the assay with Mus musculus [9] amounted to 163%; in the assay on Mus musculus [10] it was 156%. The IC50 was 60 nM in the assay with MIA PaCa-2 (Homo sapiens, MIA PaCa-2); 400 nM in the assay on MCF7 (mcf7); 10 nM with LOX IMVI [11]; 60 nM with Bladder carcinoma cell (setting [12]).

Regarding `CC[n+]1c(/C=C2\SCC(=O)N2c2ccccc2)sc2ccccc21.[Br-]`, the Ratio in [1] is listed as 20. Further, the values for the concentration for half-maximal inhibition (IC50) with CX-1 and in the assay with CV-1 were 2300 nM and 46100 nM, respectively.
